From US11076594B2, “Pyrazolone compound or salt thereof, preparation method therefor, herbicide composition and use thereof” (QINGDAO KINGAGROOT CHEMICAL COMPOUNDS CO., LTD., priority 2015, dated 2021) come the findings set out here.

What all share (assay type): in vivo
One series relates to Indian mallow. Briefly: weed control effect in post-emergence stage (Table 1). As to conditions: post-emergence spray at 4-5 leaf stage, 250 g/ha active ingredient with 450 kg/ha water, rated after 3 weeks in greenhouse. Also on record: key: Level 10: completely dead; Level 9: above 95% growth control rate; Level 8: above 90% growth control rate; Level 7: above 80% growth control rate; Level 6: above 70% growth control rate; Level 5: above 60% growth control rate; Level 4: above 50% growth control rate; Level 3: above 20% growth control rate; Level 2: 5%-20% growth control rate; Level 1: below 5% growth control rate. An outline of the steps: (§1)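 Read-out is growth control rate based on fresh weight, determined 3 weeks after treatment. Plants raised from seed in potted soil (0.5-2 cm cover) in greenhouse were sprayed 2-3 weeks post-sowing at 4-5 leaves with acetone/Tween 80 aqueous compound solutions.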

Another series deals with bidens bipinnata. The description is as above. The note with it: post-emergence spray at 4-5 leaf stage, 250 g/ha active ingredient with 450 kg/ha water, rated after 3 weeks in greenhouse. Also on record: key: Level 10: completely dead; Level 9: above 95% growth control rate; Level 8: above 90% growth control rate; Level 7: above 80% growth control rate; Level 6: above 70% growth control rate; Level 5: above 60% growth control rate; Level 4: above 50% growth control rate; Level 3: above 20% growth control rate; Level 2: 5%-20% growth control rate; Level 1: below 5% growth control rate. An outline of the steps: as §1

Another series relates to crab grass. The description is as above. Further details: key: Level 10: completely dead; Level 9: above 95% growth control rate; Level 8: above 90% growth control rate; Level 7: above 80% growth control rate; Level 6: above 70% growth control rate; Level 5: above 60% growth control rate; Level 4: above 50% growth control rate; Level 3: above 20% growth control rate; Level 2: 5%-20% growth control rate; Level 1: below 5% growth control rate. As to conditions: post-emergence spray at 4-5 leaf stage, 250 g/ha active ingredient with 450 kg/ha water, rated after 3 weeks in greenhouse. A digest of the protocol:
as §1

For series [1], the system named is echinochloa. Described as above. The note with it: post-emergence spray at 4-5 leaf stage, 250 g/ha active ingredient with 450 kg/ha water, rated after 3 weeks in greenhouse. Further details: key: Level 10: completely dead; Level 9: above 95% growth control rate; Level 8: above 90% growth control rate; Level 7: above 80% growth control rate; Level 6: above 70% growth control rate; Level 5: above 60% growth control rate; Level 4: above 50% growth control rate; Level 3: above 20% growth control rate; Level 2: 5%-20% growth control rate; Level 1: below 5% growth control rate. An outline of the steps: as §1

For a further series, the system named is foxtail. Described as above. Also on record: key: Level 10: completely dead; Level 9: above 95% growth control rate; Level 8: above 90% growth control rate; Level 7: above 80% growth control rate; Level 6: above 70% growth control rate; Level 5: above 60% growth control rate; Level 4: above 50% growth control rate; Level 3: above 20% growth control rate; Level 2: 5%-20% growth control rate; Level 1: below 5% growth control rate. As to conditions: post-emergence spray at 4-5 leaf stage, 250 g/ha active ingredient with 450 kg/ha water, rated after 3 weeks in greenhouse. A digest of the protocol:
as §1

In another series the test system is rorippa indica. The description is as above. Also on record: key: Level 10: completely dead; Level 9: above 95% growth control rate; Level 8: above 90% growth control rate; Level 7: above 80% growth control rate; Level 6: above 70% growth control rate; Level 5: above 60% growth control rate; Level 4: above 50% growth control rate; Level 3: above 20% growth control rate; Level 2: 5%-20% growth control rate; Level 1: below 5% growth control rate. As to conditions: post-emergence spray at 4-5 leaf stage, 250 g/ha active ingredient with 450 kg/ha water, rated after 3 weeks in greenhouse. An outline of the steps:
as §1

Another series has as its system wheat. Briefly: post-emergence stage experiment, crop (Table 1). As to conditions: post-emergence spray at 4-5 leaf stage, 250 g/ha active ingredient with 450 kg/ha water, rated after 3 weeks in greenhouse. An outline of the steps: as §1
A further series relates to rice. Kind of series: post-emergence stage experiment, crop (Table 1). The note with it: post-emergence spray at 4-5 leaf stage, 250 g/ha active ingredient with 450 kg/ha water, rated after 3 weeks in greenhouse. An outline of the steps:
as §1

A further series has as its system bidens tripartite. Kind of series: weed control effect evaluation in rice field. Further details: key: Level 10: completely dead; Level 9: above 95% growth control rate; Level 8: above 90% growth control rate; Level 7: above 80% growth control rate; Level 6: above 70% growth control rate; Level 5: above 60% growth control rate; Level 4: above 50% growth control rate; Level 3: above 20% growth control rate; Level 2: 5%-20% growth control rate; Level 1: below 5% growth control rate. As to conditions: 125 g/ha ai; rice field pot; 14 days after treatment; resistant to pyrazosulfuron-ethyl. The text has this: (§2) The activity level standard of harmful plant destruction (i.e. growth control rate) is as follows: Rice field soil was loaded into a 1/1,000,000 ha pot. The seeds of echinochloa, scirpus juncoides, bidens tripartite and sagittaria trifolia were sowed and gently covered with soil, then left to stand still in greenhouse in the state of 0.5-1 cm of water storage. The tuber of sagittaria trifolia was planted in the next day or 2 days later. It was kept at 3-4 cm of water storage thereafter. The weeds were treated by dripping the WP or SC water diluents prepared according to the common preparation method of the compounds of the present invention with pipette homogeneously to achieve specified effective amount when echinochloa, scirpus juncoides and bidens tripartite reached 0.5 leaf stage and sagittaria trifolia reached the time point of primary leaf stage. The fertility condition of echinochloa, scirpus juncoides, bidens tripartite and sagittaria trifolia 14 days after the treatment of the compound of the invention and the fertility condition of rice 21 days after the treatment of the compound of the invention respectively with the naked eye.

Series [2] concerns echinochloa. Briefly: weed control effect evaluation in rice field. Further details: key: Level 10: completely dead; Level 9: above 95% growth control rate; Level 8: above 90% growth control rate; Level 7: above 80% growth control rate; Level 6: above 70% growth control rate; Level 5: above 60% growth control rate; Level 4: above 50% growth control rate; Level 3: above 20% growth control rate; Level 2: 5%-20% growth control rate; Level 1: below 5% growth control rate. As to conditions: 125 g/ha ai; rice field pot; 14 days after treatment; resistant to pyrazosulfuron-ethyl.
Excerpt: as §2

The subject of a further series is sagittaria trifolia. Briefly: weed control effect evaluation in rice field. Also on record: key: Level 10: completely dead; Level 9: above 95% growth control rate; Level 8: above 90% growth control rate; Level 7: above 80% growth control rate; Level 6: above 70% growth control rate; Level 5: above 60% growth control rate; Level 4: above 50% growth control rate; Level 3: above 20% growth control rate; Level 2: 5%-20% growth control rate; Level 1: below 5% growth control rate. As to conditions: 125 g/ha ai; rice field pot; 14 days after treatment; resistant to pyrazosulfuron-ethyl.
Excerpt: as §2

A further series has as its system scirpus juncoides. Briefly: weed control effect evaluation in rice field. Further details: key: Level 10: completely dead; Level 9: above 95% growth control rate; Level 8: above 90% growth control rate; Level 7: above 80% growth control rate; Level 6: above 70% growth control rate; Level 5: above 60% growth control rate; Level 4: above 50% growth control rate; Level 3: above 20% growth control rate; Level 2: 5%-20% growth control rate; Level 1: below 5% growth control rate. The note with it: 125 g/ha ai; rice field pot; 14 days after treatment; resistant to pyrazosulfuron-ethyl.
Excerpt: as §2

The test system of a further series is rice (japonica rice). Kind of series: transplanted rice safety evaluation. The note with it: 125 g/ha ai; treated 5 days after transplantation; 21 days after treatment. Here is the method: The activity level standard of harmful plant destruction (i.e. growth control rate) is as follows: In addition, the rice field soil that loaded into the 1/1,000,000 ha pot was leveled to keep water storage at 3-4 cm depth. The 3 leaf stage rice (japonica rice) was transplanted at 3 cm of transplanting depth the next day. The compound of the present invention was treated by the same way after 5 days of transplantation. The fertility condition of echinochloa, scirpus juncoides, bidens tripartite and sagittaria trifolia 14 days after the treatment of the compound of the invention and the fertility condition of rice 21 days after the treatment of the compound of the invention respectively with the naked eye.

Turning to `Cc1nn(C)c(O)c1C(=O)c1ccc(C(F)(F)F)c(N)c1Cl` [Compound 001], the “weed control effect, Indian mallow (level)” value in the series on Indian mallow is listed as 9 (Level 9: above 95% growth control rate). The “weed control effect, Bidens bipinnata (level)” value with bidens bipinnata is given as 8 (Level 8: above 90% growth control rate). Besides, in the series on crab grass, the “weed control effect, Crab grass (level)” value is recorded as 1 (Level 1: below 5% growth control rate). Also, the “weed control effect, Echinochloa (level)” value with echinochloa [1] is 6 (Level 6: above 70% growth control rate). Besides, in the series with foxtail, the “weed control effect, Green foxtail (level)” value is recorded as 6 (Level 6: above 70% growth control rate). Besides, the “weed control effect, Rorippa indica (level)” value in the series with rorippa indica is reported as 9 (Level 9: above 95% growth control rate). Besides, the “effect on crop, Wheat (level)” value in the series on wheat is 0. In the series on rice, the “effect on crop, Rice (level)” value is recorded as 4 (Level 4: above 50% growth control rate). Also, the “Bidens tripartite weed control effect (activity level)” value (“Bidens tripartite weed control effect” below) in the series with bidens tripartite is on record as 8 (Level 8: above 90% growth control rate). Besides, in the series on echinochloa [2], the “Echinochloa weed control effect (activity level)” value (“Echinochloa weed control effect” for short) stood at 10. In the series on sagittaria trifolia, the “Sagittaria trifolia weed control effect (activity level)” value (“Sagittaria trifolia weed control effect” below) is listed as 9 (Level 9: above 95% growth control rate). The “Scirpus juncoides weed control effect (activity level)” value (shortened to “Scirpus juncoides weed control effect”) in the series on scirpus juncoides amounted to 10. Besides, the “Rice (activity level, transplanted rice safety)” value in the series with rice (japonica rice) was 0.

Consider `Cc1nn(C)c(O)c1C(=O)c1ccc(C(F)(F)F)c(N2CCCCCC2=O)c1Cl` [Compound 054], for which the “weed control effect, Indian mallow (level)” value with Indian mallow is 9 (Level 9: above 95% growth control rate). Moreover, the “weed control effect, Bidens bipinnata (level)” value in the series with bidens bipinnata was 9 (Level 9: above 95% growth control rate). In addition, the “weed control effect, Crab grass (level)” value with crab grass is 1 (Level 1: below 5% growth control rate). The “weed control effect, Echinochloa (level)” value with echinochloa [1] was 6 (Level 6: above 70% growth control rate). Moreover, in the series with foxtail, the “weed control effect, Green foxtail (level)” value is 5 (Level 5: above 60% growth control rate). Further, the “weed control effect, Rorippa indica (level)” value in the series on rorippa indica was 9 (Level 9: above 95% growth control rate). For the same molecule, the “effect on crop, Wheat (level)” value in the series on wheat is listed as 0. In addition, the “effect on crop, Rice (level)” value in the series on rice was 4 (Level 4: above 50% growth control rate). In the series with bidens tripartite, the “Bidens tripartite weed control effect” value is given as 9 (Level 9: above 95% growth control rate). Moreover, in the series with echinochloa [2], the “Echinochloa weed control effect” value is recorded as 8 (Level 8: above 90% growth control rate). For the same molecule, the “Sagittaria trifolia weed control effect” value in the series on sagittaria trifolia is given as 9 (Level 9: above 95% growth control rate). Moreover, the “Scirpus juncoides weed control effect” value in the series on scirpus juncoides is reported as 9 (Level 9: above 95% growth control rate). The “Rice (activity level, transplanted rice safety)” value in the series on rice (japonica rice) is listed as 2 (Level 2: 5%-20% growth control rate).

In the case of `Cc1nn(C)c(O)c1C(=O)c1ccc(C(F)(F)F)c(-n2cccn2)c1Cl` [Compound 068], the “weed control effect, Indian mallow (level)” value in the series on Indian mallow came out at 10. Besides, in the series with bidens bipinnata, the “weed control effect, Bidens bipinnata (level)” value is given as 10. In the series on crab grass, the “weed control effect, Crab grass (level)” value is on record as 5 (Level 5: above 60% growth control rate). For the same molecule, in the series with echinochloa [1], the “weed control effect, Echinochloa (level)” value was 10. For the same molecule, in the series with foxtail, the “weed control effect, Green foxtail (level)” value is 10. The “weed control effect, Rorippa indica (level)” value in the series on rorippa indica was 9 (Level 9: above 95% growth control rate). Further, in the series on wheat, the “effect on crop, Wheat (level)” value is 3 (Level 3: above 20% growth control rate). Moreover, the “effect on crop, Rice (level)” value with rice is on record as 5 (Level 5: above 60% growth control rate). Further, in the series with bidens tripartite, the “Bidens tripartite weed control effect” value was 10. Moreover, the “Echinochloa weed control effect” value in the series with echinochloa [2] is recorded as 10. The “Sagittaria trifolia weed control effect” value in the series on sagittaria trifolia is given as 10. The “Scirpus juncoides weed control effect” value in the series on scirpus juncoides was 9 (Level 9: above 95% growth control rate). Further, in the series with rice (japonica rice), the “Rice (activity level, transplanted rice safety)” value is on record as 1 (Level 1: below 5% growth control rate).

Consider `Cc1ccn(-c2c(C(F)(F)F)ccc(C(=O)c3c(C)nn(C)c3O)c2Cl)n1` [Compound 077], for which the “weed control effect, Indian mallow (level)” value in the series with Indian mallow is reported as 10. The “weed control effect, Bidens bipinnata (level)” value in the series with bidens bipinnata was 9 (Level 9: above 95% growth control rate). Also, the “weed control effect, Crab grass (level)” value in the series on crab grass was 4 (Level 4: above 50% growth control rate). Besides, the “weed control effect, Echinochloa (level)” value in the series with echinochloa [1] was 10. Moreover, the “weed control effect, Green foxtail (level)” value in the series with foxtail was 7 (Level 7: above 80% growth control rate). Besides, in the series on rorippa indica, the “weed control effect, Rorippa indica (level)” value is given as 10. In the series on wheat, the “effect on crop, Wheat (level)” value is 0. In addition, the “effect on crop, Rice (level)” value with rice is 6 (Level 6: above 70% growth control rate). In the series on bidens tripartite, the “Bidens tripartite weed control effect” value is 9 (Level 9: above 95% growth control rate). The “Echinochloa weed control effect” value in the series with echinochloa [2] was found to be 10. Further, the “Sagittaria trifolia weed control effect” value in the series with sagittaria trifolia came to 10. The “Scirpus juncoides weed control effect” value in the series with scirpus juncoides was determined as 10. Also, the “Rice (activity level, transplanted rice safety)” value in the series with rice (japonica rice) was 1 (Level 1: below 5% growth control rate).
